Article PMC9425435, “Antiviral Profiling of C-18- or C-19-Functionalized Semisynthetic Abietane Diterpenoids” (Journal of Natural Products, 2022)
Read-outs that look alike come from different tables or passages of the source. Marks after values point to notes of the source that are not given here.

Assays:
BHK-21 cells = experiment: Cytotoxicity CC100 in BHK-21 cells (6 days)
Vero-E6 cells = experiment: Cytotoxicity CC100 in Vero-E6 cells (72 h); settings: for CC100 (100% cytotoxic concentration): Vero-E6 cells, 72h; for Cytostatic compounds (asterisk at the label): Table 1 footnote mark
ZIKV (Zika virus) [1] = experiment: Plaque reduction assay (PFU), ZIKV in Vero E6; assay type: cell-based; settings: ZIKV, Vero E6, PFU/well 150 ± 25
ZIKV (Zika virus) [2] = experiment: End-point titration technique (EPTT), cytopathic effect inhibition, ZIKV in Vero E6; assay type: cell-based; settings: Vero E6, 10TCID50, EPTT
[3] = test system: CHIKV (Chikungunya virus); experiment: End-point titration technique (EPTT), viral titer reduction factor, CHIKV in Vero E6; assay type: cell-based; settings: for Rf (reduction factor of the viral titer): Vero E6, 10TCID50, EPTT
HHV-1, 29R strain = assay type: cell-based, human Alpha herpesvirus type 1
[4] = test system: DENV-2 (Dengue virus type 2); experiment: Plaque reduction assay (PFU), DENV-2 in BHK21; assay type: cell-based; settings: for % inhibition (PFU): DENV-2, BHK21, PFU/well 150 ± 25
[5] = test system: DENV-2 (Dengue virus type 2); experiment: End-point titration technique (EPTT), cytopathic effect inhibition, DENV-2 in Vero E6; assay type: cell-based; settings: DENV-2, Vero E6, 10TCID50, EPTT

Compound	CC100 (100% cytotoxic concentration) (BHK-21 cells)	CC100 (100% cytotoxic concentration) (Vero-E6 cells)	% inhibition (PFU) (ZIKV (Zika virus) [1])	Rf (reduction factor of the viral titer) (HHV-1, 29R strain; Vero E6, 10TCID50, EPTT)	further results
COC(=O)[C@]1(C)CCC[C@]2(C)c3cc(O)c(C(C)C)cc3CC[C@@H]12 [Compound 18a]	25 µg/mL	50 µg/mL			
COC(=O)[C@]1(C)CCC[C@]2(C)c3ccc(C(C)C)cc3CC[C@@H]12 [Compound 12, methyl dehydroabietate]	50 µg/mL	>50 µg/mL	25 ± 10%		inhibition ECytop (inhibitory cytopathic effect compared to the infection control) (ZIKV (Zika virus) [2]): +
COC(=O)[C@]1(C)CCC[C@]2(C)c3cc(C(C)=O)c(C(C)C)cc3CC[C@@H]12 [Compound 15a]	25 µg/mL	>50 µg/mL			
CC(C)c1cc2c(cc1O)[C@@]1(C)CCC[C@@](C)(C(=O)O)[C@@H]1CC2 [Compound 19a, 12-hydroxydehydroabietic acid]	12.5 µg/mL	25 µg/mL			
CC(C)c1cc2c(cc1O)[C@@]1(C)CCCC(C)(C)[C@@H]1CC2 [Compound 5, (+)-ferruginol]	>50 µg/mL	>50 µg/mL	38 ± 15%	not active	Rf (reduction factor of the viral titer) [3]: 10^2; % inhibition (PFU) [4]: 28 ± 10%
CC(C)c1ccc2c(c1O)CC[C@H]1[C@](C)(C(=O)O)CCC[C@]21C [Compound 25]	>25 µg/mL	>25 µg/mL	20 ± 09%	not active	
CC(C)c1cc2c(cc1O)[C@@]1(C)CCC[C@@](C)(CO)[C@@H]1CC2 [Compound 20a, 18-hydroxyferruginol]	50 µg/mL	50 µg/mL	19 ± 11%		Rf (reduction factor of the viral titer) [3]: 10^2; % inhibition (PFU) [4]: 25 ± 10%; Cytostatic effect (Vero-E6 cells): cytostatic; Cytostatic compounds (asterisk at the label) (Vero-E6 cells): 20a*
CC(C)c1cc2c(cc1O)[C@@]1(C)CCC[C@@](C)(CO)[C@@H]1CC2=O [Compound 21a]	12.5 µg/mL	25 µg/mL	27 ± 12%		Rf (reduction factor of the viral titer) [3]: 10^2; inhibition ECytop (inhibitory cytopathic effect compared to the infection control) [5]: +
COC(=O)[C@]1(C)CCC[C@]2(C)c3cc(OC(C)=O)c(C(C)C)cc3CC[C@@H]12 [Compound 16a]	50 µg/mL	50 µg/mL	22 ± 13%		Rf (reduction factor of the viral titer) [3]: 10^2; inhibition ECytop (inhibitory cytopathic effect compared to the infection control) (ZIKV (Zika virus) [2]): +
COC(=O)[C@@]1(C)CCC[C@]2(C)c3cc(OC(C)=O)c(C(C)C)cc3C(=O)C[C@@H]12 [Compound 17b]	25 µg/mL	50 µg/mL		not active	inhibition ECytop (inhibitory cytopathic effect compared to the infection control) (ZIKV (Zika virus) [2]): +
CC(C)c1cc2c(cc1O)[C@@]1(C)CCC[C@@](C)(C(=O)O)[C@@H]1CC2=O [Compound 23a, liquiditerpenoic acid A]	50 µg/mL	>50 µg/mL			
COC(=O)[C@@]1(C)CCC[C@]2(C)c3cc(O)c(C(C)C)cc3CC[C@@H]12 [Compound 18b]	50 µg/mL	>50 µg/mL	48 ± 12%	not active	Rf (reduction factor of the viral titer) [3]: 10^2; % inhibition (PFU) [4]: 51 ± 8%
CC(C)c1cc2c(cc1O)[C@@]1(C)CCC[C@](C)(C(=O)O)[C@@H]1CC2 [Compound 19b, lambertic acid]	>50 µg/mL	>50 µg/mL	27 ± 17%		% inhibition (PFU) [4]: 35 ± 10%; inhibition ECytop (inhibitory cytopathic effect compared to the infection control) (ZIKV (Zika virus) [2]): +
COC(=O)[C@]1(C)CCC[C@]2(C)c3cc(OC(C)=O)c(C(C)C)cc3C(=O)C[C@@H]12 [Compound 17a]	25 µg/mL	25 µg/mL			
COC(=O)[C@]1(C)CCC[C@]2(C)c3cc(O)c(C(C)C)cc3C(=O)C[C@@H]12 [Compound 22a]	25 µg/mL	50 µg/mL			
COC(=O)[C@@]1(C)CCC[C@]2(C)c3cc(C(C)=O)c(C(C)C)cc3CC[C@@H]12 [Compound 15b]	50 µg/mL	>50 µg/mL	29 ± 14%		% inhibition (PFU) [4]: 68 ± 20%
CC(C)c1ccc2c(c1)CC[C@H]1C(C)(C(=O)O)CCC[C@]21C (some centres unmarked) [Compound 13]	50 µg/mL	50 µg/mL	19 ± 12%		Cytostatic compounds (asterisk at the label) (Vero-E6 cells): 13*; inhibition ECytop (inhibitory cytopathic effect compared to the infection control) [5]: +
CC(C)c1cc2c(cc1O)[C@@]1(C)CCC[C@](C)(CO)[C@@H]1CC2 [Compound 20b, 19-hydroxyferruginol]	12.5 µg/mL	25 µg/mL			Rf (reduction factor of the viral titer) [3]: 10^2; inhibition ECytop (inhibitory cytopathic effect compared to the infection control) (ZIKV (Zika virus) [2]): +
CC(C)c1cc2c(cc1O)[C@@]1(C)CCC[C@](C)(C(=O)O)[C@@H]1CC2=O [Compound 23b]	12.5 µg/mL	25 µg/mL		not active	
COC(=O)[C@]1(C)CCC[C@]2(C)c3ccc(C(C)C)c(O)c3CC[C@@H]12 [Compound 24, methyl 14-hydroxy-dehydroabietate]	>25 µg/mL	>25 µg/mL	51 ± 15%		Rf (reduction factor of the viral titer) [3]: 10^2; % inhibition (PFU) [4]: 48 ± 9%; Most active concentration, in μM ([4]; DENV-2 PFU assay, conversion of 3.1 μg/mL): ca. 9.3 μM
COC(=O)[C@@]1(C)CCC[C@]2(C)c3cc(OC(C)=O)c(C(C)C)cc3CC[C@@H]12 [Compound 16b]	25 µg/mL	25 µg/mL	29 ± 9%	not active	inhibition ECytop (inhibitory cytopathic effect compared to the infection control) (ZIKV (Zika virus) [2]): +; inhibition ECytop (inhibitory cytopathic effect compared to the infection control) [5]: +
COC(=O)[C@@]1(C)CCC[C@]2(C)c3cc(O)c(C(C)C)cc3C(=O)C[C@@H]12 [Compound 22b]	12.5 µg/mL	25 µg/mL		not active	inhibition ECytop (inhibitory cytopathic effect compared to the infection control) [5]: +
CC(C)c1ccc2c(c1O)CC[C@H]1[C@](C)(CO)CCC[C@]21C [Compound 26]	>25 µg/mL	>25 µg/mL		not active	inhibition ECytop (inhibitory cytopathic effect compared to the infection control) (ZIKV (Zika virus) [2]): +
CC(C)c1ccc2c(c1)CC[C@H]1C(C)(CO)CCC[C@]21C (some centres unmarked) [Compound 14]	>50 µg/mL	>50 µg/mL	37 ± 15%	not active	Rf (reduction factor of the viral titer) [3]: 10^2; % inhibition (PFU) [4]: 30 ± 10%
CC(C)c1cc2c(cc1O)[C@@]1(C)CCC[C@](C)(CO)[C@@H]1CC2=O [Compound 21b]	25 µg/mL	>25 µg/mL			
dextran sulfate [DS, reference compound]		>50 µg/mL			Nontoxic concentration that showed higher viral reduction factor (HHV-1, 29R strain; Vero E6, 10TCID50, EPTT): 5 µg/mL
heparin [reference compound]					Nontoxic concentration that showed higher viral reduction factor ([3]; Vero E6, EPTT, heparin): 10 U.I.; Nontoxic concentration that showed higher viral reduction factor (HHV-1, 29R strain; Vero E6, EPTT, heparin): 10 U.I.; CC100 (100% cytotoxic concentration) (Vero-E6 cells; heparin): >100 U.I
